Measurements published in publication PMC9000336, “Development of Bicyclo[3.1.0]hexane-Based A3 Receptor Ligands: Closing the Gaps in the Structure–Affinity Relationships” (Molecules, 2022).
Read-outs that look alike come from different tables or passages of the source.

Assays:
[1] = target: T1, hA2B receptor (Homo sapiens, UniProt P29275); assay: Radioligand displacement assay, human adenosine A2B receptor ([3H]PSB-603, CHO-spap-hA2BR membranes); format: binding
T1 construct: expressed in transfected cells; host or cells: CHO-spap cells (CHO-spap-hA2BR), from S. J. Dowell (GlaxoSmithKline); membrane preparation
T1 sequence (P29275 1-332): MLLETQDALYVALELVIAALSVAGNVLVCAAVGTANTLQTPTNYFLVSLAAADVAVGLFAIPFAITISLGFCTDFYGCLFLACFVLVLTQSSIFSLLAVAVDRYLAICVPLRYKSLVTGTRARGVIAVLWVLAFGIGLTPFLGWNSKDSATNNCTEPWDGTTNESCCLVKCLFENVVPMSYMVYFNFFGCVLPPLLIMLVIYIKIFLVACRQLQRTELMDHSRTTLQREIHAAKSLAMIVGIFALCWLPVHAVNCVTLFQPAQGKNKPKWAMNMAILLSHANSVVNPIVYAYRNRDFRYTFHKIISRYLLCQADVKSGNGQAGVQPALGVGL
Method: Human embryonic kidney 293 cells stably expressing the human adenosine A2A receptor (HEK293hA2AR) were kindly provided by Dr. J. Wang (Biogen/IDEC, Cambridge, MA, USA), CHO-spap cells stably expressing the wild-type (WT) hA2B receptor (CHO-spap-hA2BR) were kindly provided by S. J. Dowell (GlaxoSmithKline, Brentfort, UK).
Chinese hamster ovary cells stably expressing the […] and a reporter gene, the secreted placental alkaline phosphatase, (CHO-spap-hA2BR) were grown in DMEM and Ham’s F12 medium (1:1) supplemented with 10% (v/v) newborn calf serum, 100 µg/mL streptomycin, 100 IU/mL penicillin, 1 mg/mL G418, and 0.4 mg/mL hygromycin at 37 °C and 5% CO2.
(§1) All cells were grown to 80–90% confluency and detached from plates by scraping them into 5 mL phosphate-buffered saline. Detached cells were collected and centrifuged at 200 g for 5 min. Pellets derived from 100 15 cm Ø plates were pooled and resuspended in 70 mL of ice-cold 50 mM tris(hydroxymethyl)aminomethane (Tris)-HCl buffer, pH 7.4. A Heidolph Diax 900 homogenizer was used to homogenize the cell suspension. Membranes and the cytosolic fraction were separated by centrifugation at 100,000 g in a Beckman Optima LE-80 K ultracentrifuge (Beckman Coulter, Fullerton, CA, USA) at 4 °C for 20 min. The pellet was resuspended in 35 mL of the Tris-HCl buffer, and the homogenization and centrifugation steps were repeated. Tris-HCl buffer (25 mL) was used to resuspend the pellet, and adenosine deaminase (ADA) was added (0.8 U/mL) to break down endogenous adenosine. Membranes were stored in 250 µL and 500 µL aliquots at −80 °C. Total protein concentrations were measured using the bicinchoninic acid (BCA) method.
A2B Receptor: Membrane aliquots containing 30 µg (CHO-spap-hA2BR) total protein were incubated in a total volume of 100 µL assay buffer (0.1% CHAPS in 50 mM TrisHCl, pH 7.4) at 25 °C for 2 h. […] Nonspecific binding was determined in the presence of 10 µM ZM241385. Incubations were terminated by rapid vacuum filtration to separate the bound and free radioligand through prewetted 96-well GF/B filter plates using a PerkinElmer Filtermate-harvester (Perkin Elmer, Groningen, the Netherlands). Filters were subsequently washed 12 times with ice-cold 0.1% BSA in 50 mM Tris-HCl, pH 7.4.
(§2) The plates of all four adenosine receptor assays were dried at 55 °C after which MicroscintTM-20-cocktail was added (Perkin Elmer, Groningen, The Netherlands).
(§3) All experimental data were analyzed using the non-linear regression curve fitting program GraphPad Prism 7.0 (GraphPad Software Inc., San Diego, CA, USA). IC50 values obtained from competition displacement binding data were converted into Ki values using the Cheng–Prusoff equation.

[2] = target: T2, human adenosine A1 receptor (Homo sapiens, UniProt P30542); assay: Radioligand displacement assay, human adenosine A1 receptor ([3H]DPCPX, CHOhA1R membranes); format: binding; details: for inhibition at 10 µM: test compound 10 µM; for Ki: [3H]DPCPX, read-out: A1 Ki ± SEM
T2 construct: expressed in transfected cells; host or cells: CHO cells (CHOhA1R), gift of Prof; S. J. Hill; membrane preparation
T2 sequence (P30542 1-326): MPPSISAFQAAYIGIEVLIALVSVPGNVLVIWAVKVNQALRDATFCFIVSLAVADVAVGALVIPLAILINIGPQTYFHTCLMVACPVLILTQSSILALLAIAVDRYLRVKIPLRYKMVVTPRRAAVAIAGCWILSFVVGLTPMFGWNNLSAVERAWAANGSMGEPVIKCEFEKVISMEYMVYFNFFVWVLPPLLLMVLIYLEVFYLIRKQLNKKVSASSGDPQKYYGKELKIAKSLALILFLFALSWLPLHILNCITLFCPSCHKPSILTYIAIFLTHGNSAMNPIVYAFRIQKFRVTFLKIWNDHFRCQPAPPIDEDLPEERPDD
Method: as §1, with “Chinese hamster ovary (CHO) cells stably expressing the human adenosine A1 receptor (CHOhA1R) were kindly provided by Prof. S. J. Hill and CHO cells stably expressing the human adenosine A3 receptor (CHOhA3R) were a gift from Dr. K.-N. Klotz (University of Würzburg, Germany). Chinese hamster ovary cells stably expressing the human A1-receptor (CHOhA1R) or the human A3-receptor (CHOhA3R) were grown in Dulbecco’s Modified Eagle’s Medium (DMEM) and Ham’s F12 medium (1:1) supplemented with 10% (v/v) newborn calf serum, 50 µg/mL streptomycin, 50 IU/mL penicillin, and 200 µg/mL G418 at 37 °C and 5% CO2. […] All” for “All”
A1 Receptor: Membrane aliquots containing 5 µg (CHOhA1R) protein were incubated in a total volume of 100 µL assay buffer (50 mM Tris-HCl, pH 7.4) at 25 °C for 1 h. […] Nonspecific binding was determined in the presence of 100 µM N^6-cyclopentyladenosine (CPA). Incubations were terminated by rapid vacuum filtration to separate the bound and free radioligand through prewetted 96-well GF/B filter plates using a PerkinElmer Filtermate-harvester (Perkin Elmer, Groningen, the Netherlands). Filters were subsequently washed 12 times with ice-cold 50 mM Tris-HCl, pH 7.4.
as §2, §3

[3] = n = 3, [3H]PSB-603, read-out: A2B Ki ± SEM

| SMILES | Ki [1, 3] | inhibition at 10 µM ([2]; n = 3) | also measured |
| --- | --- | --- | --- |
| Nc1cc(Cl)c2ncn([C@H]3[C@H](O)[C@H](O)[C@]4(CO)C[C@H]34)c2n1 [Compound 11, (1R,2R,3S,4R,5S)-4-(5-Amino-7-chloro-3H-imidazo[4,5-b]pyridin-3-yl)-1-(hydroxymethyl)bicyclo[3.1.0]hexane-2,3-diol] | > 10 µM | 5% | – |
| OC[C@@]12C[C@@H]1[C@@H](n1cnc3c(Cl)cc(Cl)nc31)[C@H](O)[C@@H]2O [Compound 12, (1R,2R,3S,4R,5S)-4-(5,7-Dichloro-3H-imidazo[4,5-b]pyridin-3-yl)-1-(hydroxymethyl)bicyclo[3.1.0]hexane-2,3-diol] | > 10 µM | – | Ki ([2]; n = 3): > 10 µM |
| COc1ccc(CNc2cc(Cl)nc3c2ncn3[C@H]2[C@H](O)[C@H](O)[C@]3(CO)C[C@H]23)cc1 [Compound 15, (1R,2R,3S,4R,5S)-4-{5-Chloro-7-[(4-methoxy)benzylamino]-3H-imidazo[4,5-b]pyridin-3-yl}-1-(hydroxymethyl)bicyclo[3.1.0]hexane-2,3-diol] | > 10 µM | 12% | – |
| Nc1cc(Cl)nc2c1ncn2[C@H]1[C@H](O)[C@H](O)[C@]2(CO)C[C@H]12 [Compound 16, (1R,2R,3S,4R,5S)-4-(7-Amino-5-chloro-3H-imidazo[4,5-b]pyridin-3-yl)-1-(hydroxymethyl)bicyclo[3.1.0]hexane-2,3-diol] | > 10 µM | 32% | – |
| CSc1cc(N)c2ncn([C@H]3[C@H](O)[C@H](O)[C@]4(CO)C[C@H]34)c2n1 [Compound 17, (1R,2R,3S,4R,5S)-4-(7-Amino-5-methylthio-3H-imidazo[4,5-b]pyridin-3-yl)-1-(hydroxymethyl)bicyclo[3.1.0]hexane-2,3-diol] | > 10 µM | 23% | – |
| Nc1ncnc2c1ncn2[C@H]1[C@H](O)[C@H](O)[C@]2(CO)C[C@H]12 [Compound 36, (N)-methanocarba adenosine] | > 10 µM | – | affinity at the A2B subtype [1]: no affinity; Ki ([2]; n = 3): 6.1 ± 0.46 µM; fold lower affinity towards A1 receptor than A3 ([2]; relative to A3 Ki): 6 fold |
| CSc1nc(N)c2ncn([C@H]3[C@H](O)[C@H](O)[C@]4(Cn5cc(CO)nn5)C[C@H]34)c2n1 [Compound 39, (1R,2R,3S,4R,5S)-4-(6-Amino-2-methylthio-9H-purin-9-yl)-1-{[4-(hydroxymethyl)-1H-1,2,3-triazol-1-yl]methyl}bicyclo[3.1.0]hexane-2,3-diol] | > 10 µM | 5% | – |
| COC(=O)c1cn(C[C@@]23C[C@@H]2[C@@H](n2cnc4c(N)nc(SC)nc42)[C@H](O)[C@@H]3O)nn1 [Compound 40, Methyl 1-{[(1R,2R,3S,4R,5S)-4-(6-amino-2-methylthio-9H-purin-9-yl)-2,3-dihydroxybicyclo[3.1.0]hex-1-yl]methyl}-1H-1,2,3-triazole-4-carboxylate] | > 10 µM | 7% | – |
| COC(=O)Cc1cn(C[C@@]23C[C@@H]2[C@@H](n2cnc4c(N)nc(SC)nc42)[C@H](O)[C@@H]3O)nn1 [Compound 41, Methyl 2-(1-{[(1R,2R,3S,4R,5S)-4-(6-amino-2-methylthio-9H-purin-9-yl)-2,3-dihydroxybicyclo[3.1.0]hex-1-yl]methyl}-1H-1,2,3-triazol-4-yl)acetate] | – | – | Ki ([1]; footnote a: tested at 1 µM, n = 3, read-out: A2B Ki (bound, footnote a)): > 1 µM; A1 displacement at 1 µM ([2]; footnote a: test compound 1 µM, n = 3): 2% ^a |

The next lines start with results.

| Ki [1, 3] | inhibition at 10 µM ([2]; n = 3) | SMILES | also measured |
| --- | --- | --- | --- |
| > 10 µM | 25% | OC[C@@]12C[C@@H]1[C@@H](n1cnc3c(NCc4ccccc4)cc(Cl)nc31)[C@H](O)[C@@H]2O [Compound 13, (1R,2R,3S,4R,5S)-4-[7-(Benzylamino)-5-chloro-3H-imidazo[4,5-b]pyridin-3-yl]-1-(hydroxymethyl)bicyclo[3.1.0]hexane-2,3-diol] | – |
| > 10 µM | 20% | CSc1cc(NCc2ccccc2)c2ncn([C@H]3[C@H](O)[C@H](O)[C@]4(CO)C[C@H]34)c2n1 [Compound 14, (1R,2R,3S,4R,5S)-4-[7-(Benzylamino)-5-methylthio-3H-imidazo[4,5-b]pyridin-3-yl]-1-(hydroxymethyl)bicyclo[3.1.0]hexane-2,3-diol] | – |
| – | 25% | OC[C@@]12C[C@@H]1[C@@H](n1cnc3c(N(Cc4ccccc4)Cc4ccccc4)ncnc31)[C@H](O)[C@@H]2O [Compound 26, (1R,2R,3S,4R,5S)-4-[6-(Dibenzylamino)-9H-purin-9-yl]-1-(hydroxymethyl)bicyclo[3.1.0]hexane-2,3-diol] | A2B displacement at 10 µM ([1]; test compound 10 µM, n = 3): 12% |
| > 10 µM | 15% | OC[C@@]12C[C@@H]1[C@@H](n1cnc3c(N(Cc4ccccc4)Cc4ccccc4)nc(Cl)nc31)[C@H](O)[C@@H]2O [Compound 27, (1R,2R,3S,4R,5S)-4-[6-(Dibenzylamino)-2-chloro-9H-purin-9-yl]-1-(hydroxymethyl)bicyclo[3.1.0]hexane-2,3-diol] | – |
| > 10 µM | 30% | CSc1nc(N(Cc2ccccc2)Cc2ccccc2)c2ncn([C@H]3[C@H](O)[C@H](O)[C@]4(CO)C[C@H]34)c2n1 [Compound 30, (1R,2R,3S,4R,5S)-4-[6-(Dibenzylamino)-2-methylthio-9H-purin-9-yl]-1-(hydroxymethyl)bicyclo[3.1.0]hexane-2,3-diol] | – |
| > 10 µM | 21% | CSc1nc(N(Cc2ccccc2)Cc2ccccc2)c2ncn([C@H]3[C@H](O)[C@H](O)[C@]4(CCl)C[C@H]34)c2n1 [Compound 31, (1S,2R,3S,4R,5S)-4-[6-(Dibenzylamino)-2-methylthio-9H-purin-9-yl]-1-(chloromethyl)bicyclo[3.1.0]hexane-2,3-diol] | – |
